“And” between values parts separate entries of the source, which are not always exact repeats. Identical values can stand only once. “Also recorded” adds a separate entry of the source.
How the values were obtained:
[1] = test system: Murine CPK Cells; experiment: In vitro cyst formation and cyst size in suspension culture of murine CPK cells; assay type: cell-based, mouse; settings: for Cyst Size: mean ± SD of twenty cysts, concentrations as in Table II, control 71 ± 22; for cyst formation (in words): murine CPK cells, 24 h suspension culture, ouabain 0.5 mM, also 1 mM, b155 taxol 25 μM, colchicine 10 μM, vinblastine 1 μM, cytochalasins 10 μM, model species not given
Method: At 10, 21 and 28 days after birth, mice having congenital polycystic kidney disease (CPK) and their phenotypically normal littermates were sacrificed by cervical dislocation. Kidneys were harvested aseptically and washed with DMEM/F12 (Sigma Chemical Co., St. Louis, Mo.) in a 1:1 mix. Each decapsulated kidney was chopped into cubes (1 mm) and incubated in 5 ml of collagenase solution composed of 1 mg/ml collagenase type IV (Worthington Biochemical Corporation, Freehold, N.J.), 1 mg/ml egg white trypsin inhibitor (Worthington) in 1:1 DMEM/F12.
The top 12 mls, which contained both single cells and aggregates of up to 10 cells, as assessed by inverted phase-ontrast microscopy, were placed in 2 ml aliquots in the wells of plastic culture plates (Corning, N.Y.) precoated with 1% agarose in DMEM:F12 (2 ml in each well of a 6-well plate; 1 ml in each well of a 24-well plate). Cell samples were digested with further incubation for 10 minutes in 0.05% trypsin and 0.53 mM EDTA (Gibco, BRL Gaithesburg, Md.) at 37° C. All cultures were plated at a final density of 1-3×10^4 cell, per well. For growth studies of monolayer cells, identical preparations were grown on the plastic surface of the culture plates. Both the monolayers and the cell suspensions were incubated at 37° C. in a moisture saturated incubator in 5% CO2 and air.
(§1) I used the in vitro cyst formation system of the present invention to analyze compounds that affect the process of cyst formation. To determine the therapeutic effectiveness of an agent, cyst-forming cells are suspended in a medium to which the agent has been added. These cells are then cultured on a solid phase without formation of a layer of cells on the surface, such as in the assay system described in Example 1. The extent to which the cells actually form cysts can be detected and compared to the extent of cyst formation expected if no agent were added. If the amount of cyst formation is lower than expected, then the agent is a good candidate for therapeutic intervention of cystic diseases.
(§2) The effects of various metabolic inhibitors on cyst formation were studied in cultures derived from day 21 postnatal CPK mice. […] Taxol (25 μM), a microtubule specific inhibitor, was from Calbiochem (La Jolla, Calif.). All other chemicals were obtained from Sigma Chemical Co. Cytosine arabinoside was added at the final concentration of 20 μg/ml to inhibit DNA synthesis; α-amanitin at 100 ng/ml to inhibit RNA synthesis; cycloheximide at 40 μg/ml to inhibit protein synthesis; amiloride at 1 mM to inhibit the renal epithelial Na^+ -H^+ exchange; ouabain at 0.5 mM to inhibit Na^+ -K^+ -ATPase; brefeldin-A at 10 μg/ml to inhibit transport of surface proteins; griseofulvin at 350 μM to inhibit microtubule function; colchicine at 10 μM to inhibit microtubule polymerization; and cytochalasin-B and cytochalasin-D at 10 μM to depolymerize actin filaments.
(§3) In the presence of these metabolic inhibitors in vitro, cyst formation was noted to be either present or absent; if present, the diameters of 20 cysts from a 0.2 ml aliquot were measured. In the same samples, ^3 H-dThd incorporation was also measured as described above. […] After each wash, cell clusters were collected by centrifuging at 200×g for 1 minute and the supernatant discarded. Washed cell clusters were resuspended in the original volume of growth medium without inhibitors, placed in agarose coated wells and incubated at 37° C. in a moisture saturated incubator in 5% CO2 and air.
(§4) In this table, the mean cyst size is reported as ±SD with a measurement of twenty cysts. The ^3 H-dThd incorporation is reported as ±SD using measurements of three wells. The * indicates […] versus control. […] The entries listed as "NA" in the table indicate data that is not available.

[2] = test system: Murine CPK Cells; experiment: 3H-thymidine incorporation (DNA synthesis) in CPK cell suspension culture; assay type: cell-based, mouse; settings: ± SD, three wells; concentrations as in Table II; control 100 ± 11; 1440 min
Method: Growth studies were performed on kidney cells derived from day 10, 21 and 28 postnatal CPK mice and their normal littermates. Immediately after cells were placed in suspension or monolayer culture, 3 μCi of ^3 H-thymidine (^3 H-dThd, specific activity 45 Ci/mmol, Amersham, Ill.) was placed in each well of the culture plate. DNA synthesis was assessed by incorporation of ^3 H-dThd over the 24 hours of culture, and trichloroacetic acid-insoluble. radioactivity was expressed as cpm/μg protein. Protein was assayed with the BCA reagent as described by the manufacturer (Pierce, Rockford, Ill.). At 24 hours of culture, an aliquot (0.2 ml) of the suspension was removed and the number of cysts counted using an inverted microscope. The number of cysts was expressed as a ratio factored for the total number of cells in the suspension at 24 hours of culture. Cyst diameter was measured at 100× using an eyepiece micrometer.
as §2, §3, §4

[3] = test system: human ADPKD cells; experiment: In vitro cyst formation in human ADPKD cells; assay type: cell-based
From the text: I have substituted human ADPKD cells for the murine CPK cells of Example 1 and produced similar results. Other cyst-forming cells are believed to also form suitable results with only minor deviations from the conditions set forth in Example 1.
Cell suspensions were separated from debris by sedimentation at unit gravity and decantation. After washing once with DMEM/F12 medium, cells were suspended in DMEM/F12 supplemented with 1.2 gm/l sodium bicarbonate, 1× insulin, transferrin and selenium (Sigma # 11184), 1% lipids supplement (Sigma # L4646) and 1× antibiotic/antimycotic (Sigma # A7292) at a density of 5×10^4 cells per ml. Two mls of the cell suspension were aliquoted into each well of a six-well plastic cell culture plates that had been precoated with 2 mls of 1% low melting point agarose in DMEM/F12 and incubated at 37° C. in a humidified atmosphere of 5% CO2 in air.
as §1

[4] = test system: Murine CPK Cells; experiment: Cell viability, trypan blue exclusion, CPK suspension culture; settings: 1.0 mM ouabain
Method: as §2, with “[…];” for “ouabain at 0.5 mM to inhibit Na^+ -K^+ -ATPase;”

[5] = test system: Murine CPK Cells; experiment: In vitro cyst formation and cyst size in suspension culture of murine CPK cells; assay type: cell-based, mouse; settings: day 21, 24 h, final concentration per Table II (cytosine arabinoside 20 μg/ml, α-amanitin 100 ng/ml, cycloheximide 49 μg/ml, ouabain 1 mM, amiloride 1 mM, brefeldin-A 10 μg/ml, griseofulvin 350 μM, colchicine 10 μM, vinblastine 1 μM, nocodazole 30 μM, taxol 25 μM, cytochalasins 10 μM)
[6] = test system: neonatal CPK kidneys; settings: triiodothyronine pharmacological doses; ouabain 0.2 mM; cited from earlier work
[7] = test system: Na^+ K^+ -ATPase; settings: triiodothyronine; ouabain 0.2 mM; cited from earlier work
[8] = test system: normal and polycystic human kidney epithelial cells; settings: embedded in type 1 collagen; cited from earlier work
[9] = test system: homozygous cpk mice; experiment: Survival of cpk mice on weekly griseofulvin (Example 9); assay type: in vivo, mouse
Method: Although the mechanism of its inhibitory activity is not presently understood, this antifungal agent is known to have a colchicine-like effect on mitosis.
Nine homozygous cpk mice, raised and identified as in Example 6 were treated with 25 μl of 24 mg/ml griseofulvin in DMSO through intraperitoneal injection beginning 10-12 days after birth. After the first treatment, the mice were administered with the same treatment once every week thereafter.

[10] = test system: homozygous cpk mice; experiment: Survival of cpk mice on weekly intraperitoneal treatment (Example 8, FIG. 2); assay type: in vivo, mouse
From the text: Untreated and methotrexate (MTX) treated polycystic cpk mice all died before 30 days of age. Most polycystic cpk mice treated with weekly taxol survive more than 60 days. The dotted line starting at day 120 indicates the number and age of apparently healthy taxol treated polycystic mice that were sacrificed for histology studies. Pairs of mice were sacrificed at 120 days, 182 days and 210 days of age.
In order to determine whether taxol prevents cyst formation by inhibiting cell division, another drug known to have anti-mitotic activity, methotrexate, was tested for its ability to treat homozygous cpk mice. Six cpk mice were injected intraperitoneally with 15 μl of methotrexate solution (1.1 mg/ml in water) 10-12 days after birth and once every week thereafter. The methotrexate-injected mice survived until between 18 and 27 days after birth, with only one mouse living longer than 28 days. […] Therefore, the anti-mitotic activity of taxol cannot explain its ability to treat CPK mice having a polycystic-type kidney disease. Rather, the results from in vitro tests indicate that agents which interfere with the function of the cytoskeleton, or which inhibit the delivery of membrane proteins are useful in treating cystic diseases such as Polycystic Kidney Disease.
Eleven homozygous cpk mice, raised and identified as in Example 6 were treated with 15 μl of 10 mg/ml taxol in DMSO through intraperitoneal injection beginning 11-14 days after birth. Following the first treatment, the mice were administered with the same treatment once every week thereafter. As controls, 6 cpk mice were treated with 15 μl intraperitoneal injections of DMSO beginning 10-12 days after birth and then once every week thereafter.

Row | Molecule | Cyst Size [1] [μm] | cyst formation (in words) [1] | Cyst Formation (+/-) [5] | proximal tubular cysts maintained / effect abolished [6] | renal Na^+ K^+ -ATPase activity (in words) [7] | induction of cysts [8] | other results
1 | C[C@@H]1O[C@@H](O[C@H]2C[C@@H](O)[C@]3(CO)[C@H]4[C@H](O)C[C@]5(C)[C@@H](C6=CC(=O)OC6)CC[C@]5(O)[C@@H]4CC[C@]3(O)C2)[C@H](O)[C@H](O)[C@H]1O [Ouabain] | 0 | not to inhibit cyst formation in these cells; also recorded: cyst inhibiting activity was observed; also recorded: did not prevent the formation of CPK cysts | - | abolished | decrease |  | ^3 H-dThd Incorporation [2]: 104 ± 9 % control; cyst formation (in words) ([3]; human ADPKD cells, cytosine arabinoside 20 μg/ml, α-amanitin 100 ng/ml, cycloheximide 40 μg/ml, amiloride 1 mM, ouabain 0.5 mM, taxol 25 μM, colchicine 10 μM, vinblastine 1 μM, cytochalasins 10 μM): potent inhibitor of cyst formation; also recorded: completely block cyst formation; also recorded: cyst formation can be blocked; time to lumen appearance after removing the inhibitor ([3]; human model): twenty-four; reversibility of inhibition of cyst formation ([3]; human model, inhibitor removed): reversible; cell death / reduction of cell viability (in words) [4]: extensive cell death; also recorded: large scale reduction of cell viability
2 | C=C[C@@]1(C)CC(=O)[C@]2(O)[C@@]3(C)[C@@H](O)CCC(C)(C)[C@@H]3[C@H](O)[C@H](OC(C)=O)[C@@]2(C)O1 [forskolin] |  |  |  |  |  | can be induced to produce cysts | 
3 | N[C@@H](Cc1cc(I)c(Oc2ccc(O)c(I)c2)c(I)c1)C(=O)O [triiodothyronine] |  |  |  | can be maintained | increase |  | 
4 | COC1=CC(=O)C[C@@H](C)[C@]12Oc1c(Cl)c(OC)cc(OC)c1C2=O [Griseofulvin] | 0 | inhibits the formation of cysts | - |  |  |  | minimum average lifespan ([9]; 25 μl of 24 mg/ml griseofulvin in DMSO i.p. weekly from 10-12 days, untreated controls 33.5±6.3 days, preliminary): at least 49±15.8 days; age of mice still alive ([9]; remaining three of nine mice, weekly griseofulvin i.p.): 78 days of age and 54 days of age and 63 days of age; age at death of individual mice ([9]; six of nine mice, weekly griseofulvin i.p.): 31 days of age and 34 days of age and 35 days of age and 41 days of age and 45 days of age and 60 days of age
5 | CN(Cc1cnc2nc(N)nc(N)c2n1)c1ccc(C(=O)N[C@@H](CCC(=O)O)C(=O)O)cc1 [Methotrexate] |  |  |  |  |  |  | survival, age ([10]; weekly i.p. treatment, DMSO mice survived 24-28 days, FIG. 2: all methotrexate, most taxol mice, b191: remaining six taxol mice > 120, two died < 30): < 30 days; survival (in words) ([10]; weekly i.p., versus untreated or DMSO): did not appear to survive substantially longer than untreated controls
6 | epidermal growth factor: stimulates cyst formation of kidney epithelial cells in collagen |  |  |  |  |  | can be induced to produce cysts | 

— patent publication US5882881A, “Inhibition of cyst formation by cytoskeletal specific drugs” (priority 1998, dated 1999)
